Reference: US9233979B2, “Compounds that are ERK inhibitors” (Merck Sharp & Dohme Corp., priority 2012, dated 2016)

Molecular target: phosphorylated active hERK2 enzyme (Homo sapiens (Human), UniProt P28482)
Test: Active Human ERK2 (hERK2) Activity Assay (IMAP-FP)
Format: biochemical
Details: Table 5, 0.5 nM hERK2, 30 μM ATP, 10 point titration, read-out: AERK2 IC50
Description: Assays Active Human ERK2 (hERK2) Activity Assay:
Activated ERK2 activity was determined in an IMAP-FP assay (Molecular Devices). […] The final reaction in each well of 25 μL consists of 0.5 nM hERK2, 900 nM unlabeled peptide, 80 nM labeled-peptide, and 30 μM ATP. Phosphorylation reactions were allowed to proceed for 60 minutes and were immediately quenched by the addition of 60 μL IMAP detection beads (1:1000 dilutions) in IMAP binding buffer (Molecular Devices) with 24 mM NaCl. Plates were read on EnVision reader after 60 minutes binding equilibration using Fluorescence Polarization protocol (Perkin Elmer).

Sequence of phosphorylated active hERK2 enzyme (P28482 whole entry): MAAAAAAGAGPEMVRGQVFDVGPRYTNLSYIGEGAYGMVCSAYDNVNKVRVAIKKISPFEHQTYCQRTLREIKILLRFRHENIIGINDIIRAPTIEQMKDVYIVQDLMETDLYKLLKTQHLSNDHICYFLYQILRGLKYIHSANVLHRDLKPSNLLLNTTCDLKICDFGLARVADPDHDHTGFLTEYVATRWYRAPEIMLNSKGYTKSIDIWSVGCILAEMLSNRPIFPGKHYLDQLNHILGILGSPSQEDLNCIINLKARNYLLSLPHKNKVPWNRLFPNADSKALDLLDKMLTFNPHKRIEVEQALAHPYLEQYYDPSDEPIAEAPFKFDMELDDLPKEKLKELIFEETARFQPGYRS

Row | SMILES | IC50 [nM]
1 | CNc1n[nH]c2cc(NC(=O)N[C@H](C)c3ccc(F)cc3)ncc12 [Example 1, 1-[(1R)-1-(4-Fluorophenyl)ethyl]-3-[3-(methylamino)-1H-pyrazolo[4,3-c]pyridin-6-yl]urea] | 7.85
2 | CCNc1n[nH]c2cc(NC(=O)N[C@H](C)c3ccccc3)ncc12 [Example 2, (R)-1-(3-(Ethylamino)-1H-pyrazolo[4,3-c]pyridin-6-yl)-3-(1-phenylethyl)urea] | 1.13
3 | CNc1n[nH]c2cc(NC(=O)N[C@H](C)c3ccccc3)ncc12 [Example 3, 1-[3-(methylamino)-1H-pyrazolo[4,3-c]pyridin-6-yl]-3-[(1R)-1-phenylethyl]urea] | 4.87
4 | CCNc1n[nH]c2cc(NC(=O)N[C@H](C)c3ccccn3)ncc12 [Example 4, 1-[3-(ethylamino)-1H-pyrazolo[4,3-c]pyridin-6-yl]-3-[(1R)-1-pyridin-2-ylethyl]urea] | 19.5
5 | CCNc1n[nH]c2cc(NC(=O)N[C@H](C)c3ccc(F)cc3)ncc12 [Example 5, 1-[3-(ethylamino)-1H-pyrazolo[4,3-c]pyridin-6-yl]-3-[(1R)-1-(4-fluorophenyl)ethyl]urea] | 1
6 | COC[C@@H](NC(=O)Nc1cc2[nH]nc(N3CC(OC)C3)c2cn1)c1ccccc1 [Example 6, 1-[3-(3-methoxyazetidin-1-yl)-1H-pyrazolo[4,3-c]pyridin-6-yl]-3-[(1S)-2-methoxy-1-phenylethyl]urea] | 2300
7 | COCCNC(=O)Nc1cc2[nH]nc(N3CC(OC)C3)c2cn1 [Example 7, 1-[3-(3-methoxyazetidin-1-yl)-1H-pyrazolo[4,3-c]pyridin-6-yl]-3-(2-methoxyethyl)urea] | 342
8 | COCCNC(=O)Nc1cc2[nH]nc(N3CCC3)c2cn1 [Example 8, 1-(3-azetidin-1-yl-1H-pyrazolo[4,3-c]pyridin-6-yl)-3-(2-methoxyethyl)urea] | 255
9 | COCCNC(=O)Nc1cc2[nH]nc(N3CCCC3)c2cn1 [Example 9, 1-(2-methoxyethyl)-3-(3-pyrrolidin-1-yl-1H-pyrazolo[4,3-c]pyridin-6-yl)urea] | 105
10 | COCCN(C)c1n[nH]c2cc(NC(=O)N[C@H](C)c3ccccc3)ncc12 [Example 10, 1-{3-[(2-methoxyethyl)(methyl)amino]-1H-pyrazolo[4,3-c]pyridin-6-yl}-3-[(1R)-1-phenylethyl]urea] | 42.1
11 | COC[C@@H](C)NC(=O)Nc1cc2[nH]nc(N3CCOCC3)c2cn1 [Example 11, 1-[(1R)-2-methoxy-1-methylethyl]-3-(3-morpholin-4-yl-1H-pyrazolo[4,3-c]pyridin-6-yl)urea] | 30
12 | COC[C@H](C)NC(=O)Nc1cc2[nH]nc(N3CCOCC3)c2cn1 [Example 12, 1-[(1S)-2-methoxy-1-methylethyl]-3-(3-morpholin-4-yl-1H-pyrazolo[4,3-c]pyridin-6-yl)urea] | 51.6
13 | C[C@@H](NC(=O)Nc1cc2[nH]nc(N3CCN(C)CC3)c2cn1)c1ccccc1 [Example 13, 1-[3-(4-methylpiperazin-1-yl)-1H-pyrazolo[4,3-c]pyridin-6-yl]-3-[(1R)-1-phenylethyl]urea] | 28
14 | COC[C@@H](NC(=O)Nc1cc2[nH]nc(N3CCN(C)CC3)c2cn1)c1ccccc1 [Example 14, 1-[(1S)-2-methoxy-1-phenylethyl]-3-[3-(4-methylpiperazin-1-yl)-1H-pyrazolo[4,3-c]pyridin-6-yl]urea] | 21.8
15 | C[C@@H](NC(=O)Nc1cc2[nH]nc(N(C)C)c2cn1)c1ccc(F)cc1 [Example 15, 1-[3-(dimethylamino)-1H-pyrazolo[4,3-c]pyridin-6-yl]-3-[(1R)-1-(4-fluorophenyl)ethyl]urea] | 17.3
16 | CO[C@H](C)CNC(=O)Nc1cc2[nH]nc(N3CCOCC3)c2cn1 [Example 16, 1-[(2R)-2-methoxypropyl]-3-(3-morpholin-4-yl-1H-pyrazolo[4,3-c]pyridin-6-yl)urea] | 20.6
17 | CO[C@@H](C)CNC(=O)Nc1cc2[nH]nc(N3CCOCC3)c2cn1 [Example 17, 1-[(2S)-2-methoxypropyl]-3-(3-morpholin-4-yl-1H-pyrazolo[4,3-c]pyridin-6-yl)urea] | 11.8
18 | C[C@@H](NC(=O)Nc1cc2[nH]nc(N(C)C)c2cn1)c1ccccc1 [Example 19, 1-[3-(dimethylamino)-1H-pyrazolo[4,3-c]pyridin-6-yl]-3-[(1R)-1-phenylethyl]urea] | 13.8
19 | COCCNC(=O)Nc1cc2[nH]nc(N3CCOCC3)c2cn1 [Example 20, 1-(2-methoxyethyl)-3-(3-morpholin-4-yl-1H-pyrazolo[4,3-c]pyridin-6-yl)urea] | 13.6
20 | CCN(CC)c1n[nH]c2cc(NC(=O)N[C@H](COC)c3ccccc3)ncc12 [Example 21, 1-[3-(diethylamino)-1H-pyrazolo[4,3-c]pyridin-6-yl]-3-[(1S)-2-methoxy-1-phenylethyl]urea] | 10.4
21 | COC1CN(c2n[nH]c3cc(NC(=O)N[C@H](C)c4ccccc4)ncc23)C1 [Example 22, 1-[3-(3-methoxyazetidin-1-yl)-1H-pyrazolo[4,3-c]pyridin-6-yl]-3-[(1R)-1-phenylethyl]urea] | 8.75
22 | COC[C@@H](NC(=O)Nc1cc2[nH]nc(N3CCC3)c2cn1)c1ccccc1 [Example 24, 1-(3-azetidin-1-yl-1H-pyrazolo[4,3-c]pyridin-6-yl)-3-[(1S)-2-methoxy-1-phenylethyl]urea] | 4.8
23 | C[C@@H](NC(=O)Nc1cc2[nH]nc(N3CCC3)c2cn1)c1ccccc1 [Example 25, 1-(3-azetidin-1-yl-1H-pyrazolo[4,3-c]pyridin-6-yl)-3-[(1R)-1-phenylethyl]urea] | 4.78
24 | COC[C@@H](NC(=O)Nc1cc2[nH]nc(N3CCOCC3C)c2cn1)c1ccccc1 (stereo partly drawn) [Example 27, 1-[(1S)-2-methoxy-1-phenylethyl]-3-[3-(3-methylmorpholin-4-yl)-1H-pyrazolo[4,3-c]pyridin-6-yl]urea] | 1.2
25 | COC[C@@H](NC(=O)Nc1cc2[nH]nc(N3CCCC3)c2cn1)c1ccccc1 [Example 28, 1-[(1S)-2-methoxy-1-phenylethyl]-3-(3-pyrrolidin-1-yl-1H-pyrazolo[4,3-c]pyridin-6-yl)urea] | 1
26 | C[C@@H](NC(=O)Nc1cc2[nH]nc(N3CCCC3)c2cn1)c1ccccc1 [Example 29, 1-[(1R)-1-phenylethyl]-3-(3-pyrrolidin-1-yl-1H-pyrazolo[4,3-c]pyridin-6-yl)urea] | 0.82
27 | COC[C@@H](NC(=O)Nc1cc2[nH]nc(N3CCOCC3)c2cn1)c1ccccc1 [Example 30, 1-[(1S)-2-methoxy-1-phenylethyl]-3-(3-morpholin-4-yl-1H-pyrazolo[4,3-c]pyridin-6-yl)urea] | 0.4
28 | C[C@@H](NC(=O)Nc1cc2[nH]nc(N3CCOCC3)c2cn1)c1ccc(F)cc1 [Example 31, 1-[(1R)-1-(4-fluorophenyl)ethyl]-3-(3-morpholin-4-yl-1H-pyrazolo[4,3-c]pyridin-6-yl)urea] | 0.4
29 | C[C@@H](NC(=O)Nc1cc2[nH]nc(N3CCOCC3)c2cn1)c1ccccc1 [Example 32, 1-(3-morpholin-4-yl-1H-pyrazolo[4,3-c]pyridin-6-yl)-3-[(1R)-1-phenylethyl]urea] | 0.37
30 | CCNc1n[nH]c2cc(NC(=O)N[C@H](C)c3ccccc3)nc(C)c12 [Example 38, 1-[3-(ethylamino)-4-methyl-1H-pyrazolo[4,3-c]pyridin-6-yl]-3-[(1R)-1-phenylethyl]urea] | 13.9
